Assay [1] addresses T1, CAAX prenyl protease 2 (Saccharomyces cerevisiae S288c, UniProt Q03530).
T1 sequence (Q03530 whole entry): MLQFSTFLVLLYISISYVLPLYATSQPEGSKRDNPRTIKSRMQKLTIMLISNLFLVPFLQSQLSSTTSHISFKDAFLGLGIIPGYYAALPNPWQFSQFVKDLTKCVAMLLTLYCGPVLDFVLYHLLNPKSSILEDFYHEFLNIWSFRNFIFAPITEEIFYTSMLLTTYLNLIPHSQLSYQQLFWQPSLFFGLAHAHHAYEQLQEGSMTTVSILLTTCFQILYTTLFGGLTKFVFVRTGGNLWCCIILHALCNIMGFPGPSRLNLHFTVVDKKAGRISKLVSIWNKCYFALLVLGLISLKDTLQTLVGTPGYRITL
Description: yeast Rce1 CaaX protease inhibitors, dose response, biochemical, plate reader, dry powder retest (AID 588851).

The target in assay [2] is T1, CAAX prenyl protease 2. It is filed as biochemical.
Assay [3] has as its target CAAX prenyl protease 2 (Homo sapiens, UniProt Q9Y256). Description: human Rce1 protease inhibitors, dose response, biochemical, plate reader, dry powder samples (AID 588848).
A short description of assay [4]: IOSE-T80 ovarian epithelial cell cytotoxicity, dose response, cytotoxicity control for PAX8 inhibitor project, plate reader, dry powder samples (AID 743045). It counts as functional, cell-based.
The next assay concerns the target Paired box protein Pax-8 (Homo sapiens, UniProt Q06710). In words: inhibitors of PAX8-driven TPO luciferase reporter, dose response, RMG-I cells, cherry-pick (AID 687027).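 Also: luciferase reporter driven by Pax8 target thyroperoxidase promoter measured by SteadyGlo luminescence.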 It counts as functional, cell-based.
The subject of assay [5] is HEK293. Description: cytotoxicity in HEK293T NF-kB-Luc cells, SAR follow-up, cytotoxicity control for NF-kB activator project, cell-based, resazurin fluorescence (AID 493251). It counts as functional. The settings on record: Homo sapiens.
A short description of assay [6]: IGROV1 ovarian cancer cell cytotoxicity, dose response, PAX8 inhibitor project, plate reader, dry powder samples (AID 743043). It is filed as functional, cell-based. The settings on record: IGROV-1.
The nature of assay [7]: cytotoxicity in COV362 ovarian cancer cells, dose response, cytotoxicity control for PAX8 inhibitor project, cell-based, plate reader, dry powder, SA12 (AID 743144). It counts as functional.
Assay [8] is described as follows: PAX2 cell-based inhibition, dose response, selectivity assay for PAX8 inhibitor project, plate reader, dry powder samples (AID 743048).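 Also: HEK293 cells carrying a WT1 promoter luciferase reporter driven by expressed Pax2; potency is for inhibition of Pax2 driven reporter signal.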 It counts as functional.
For the next assay, the target named is Beta-galactosidase (Escherichia coli, UniProt Q8VNN2). Description: PubChem AID 485352. It is filed as functional.
Beta-galactosidase, sequence (Q8VNN2 whole entry): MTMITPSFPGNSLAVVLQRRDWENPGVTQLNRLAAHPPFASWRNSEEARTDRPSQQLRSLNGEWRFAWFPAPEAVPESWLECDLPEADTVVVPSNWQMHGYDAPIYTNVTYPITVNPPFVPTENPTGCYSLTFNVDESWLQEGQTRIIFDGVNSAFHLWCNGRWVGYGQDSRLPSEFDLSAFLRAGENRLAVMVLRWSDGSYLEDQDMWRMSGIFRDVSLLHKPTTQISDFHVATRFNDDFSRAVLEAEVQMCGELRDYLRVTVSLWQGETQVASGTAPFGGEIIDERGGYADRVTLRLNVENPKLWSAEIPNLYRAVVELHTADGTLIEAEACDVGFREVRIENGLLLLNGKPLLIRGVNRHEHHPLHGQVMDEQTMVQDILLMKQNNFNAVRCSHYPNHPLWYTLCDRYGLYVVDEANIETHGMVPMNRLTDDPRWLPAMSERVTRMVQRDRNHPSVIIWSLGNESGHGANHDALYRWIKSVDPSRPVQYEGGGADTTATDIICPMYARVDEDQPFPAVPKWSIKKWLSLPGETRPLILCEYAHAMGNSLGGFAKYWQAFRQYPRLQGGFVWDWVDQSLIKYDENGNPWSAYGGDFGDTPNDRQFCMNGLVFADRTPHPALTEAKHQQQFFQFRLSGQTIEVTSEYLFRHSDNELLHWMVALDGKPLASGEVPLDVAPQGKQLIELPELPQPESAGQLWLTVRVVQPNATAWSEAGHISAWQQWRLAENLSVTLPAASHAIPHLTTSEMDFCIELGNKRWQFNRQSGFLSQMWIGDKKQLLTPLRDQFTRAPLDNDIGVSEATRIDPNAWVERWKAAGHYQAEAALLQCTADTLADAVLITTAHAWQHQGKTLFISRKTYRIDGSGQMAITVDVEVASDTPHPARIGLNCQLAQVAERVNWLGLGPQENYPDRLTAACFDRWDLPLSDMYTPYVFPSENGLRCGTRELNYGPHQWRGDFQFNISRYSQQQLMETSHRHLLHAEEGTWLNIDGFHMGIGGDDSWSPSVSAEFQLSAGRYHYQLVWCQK
Assay [9] can be described thus: cytotoxicity in COV434 cells, dose response, cytotoxicity control for PAX8 inhibitor project, cell-based, plate reader, dry powder, SA7 (AID 743145). It counts as functional.
The subject of assay [10] is BJ. In words: cytotoxicity toward BJ-TERT-LT-ST fibroblasts, dose response, cell-based, RAS-independent, luminescence (AID 1935).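 Also: BJ fibroblasts immortalized with TERT plus LT and ST oncogenes.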 It counts as functional. The settings on record: Homo sapiens.
Assay [11] in a line: cytotoxicity in OVCAR4 cells, dose response, cytotoxicity control for PAX8 inhibitor project, cell-based, plate reader, dry powder, SA11 (AID 743150). It counts as functional. The settings on record: OVCAR-4.
Assay [12] deals with Streptococcus sp. 'group A'. Description: growth inhibition of control SK(-) GAS strain, dose response, counter-screen for streptokinase expression inhibitor project, luminescence, kanamycin, BacTiterGlo, confirmation (AID 1900). It counts as functional, organism-based.
Assay [13] can be described thus: cytotoxicity in OV-90 ovarian cancer cells, dose response, PAX8 inhibitor project, cell-based, plate reader, dry powder, SA8 (AID 743149). It is filed as functional.
In a further assay the test system is Streptococcus. Description: Group A Streptococcus viability loss, dose response, counter-screen for streptokinase expression inhibitor project, luminescence, BacTiterGlo (AID 1915).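 Also: potency for reduction of bacterial viability or growth.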 It is filed as functional, organism-based.
Assay [14] can be described thus: A2780 ovarian cancer cell cytotoxicity, dose response, cytotoxicity control, plate reader, dry powder samples (AID 743046). It is filed as functional, cell-based.
Assay [15] deals with BJ. Description: cells. As to conditions: Homo sapiens. It is filed as functional, cell-based.
Assay [16] is described as follows: cytotoxicity in HEK-293T cells, dose response, cytotoxicity control for TCR NF-kB inhibitor project, luminescence, T-cell screen hits (AID 489026).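 Also: cells exposed to compound about 14 hours before the viability readout.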 It is filed as functional, cell-based.
Assay [17] deals with BJ. In words: cytotoxicity toward BJ-TERT fibroblasts, dose response, cell-based, RAS-independent, luminescence (AID 1933). It counts as functional. As to conditions: Homo sapiens.
Assay [18] in a line: cytotoxicity toward DRD oncogenic fibroblasts, dose response, cell-based, non-viral oncogenic, luminescence (AID 1934). It counts as functional. The settings on record: Homo sapiens.
Assay [19] concerns HEK293. In words: SAR Analysis of small molecule inhibitors of both B-cell and T-cell specific antigen receptor-induced NF-kB activation in a HEK-293T cell line using a luminescence assay. [Related pubchem assays (depositor defined):AID435003, AID435022, AID465, AID489019, AID489029]. It counts as functional, cell-based. The settings on record: Homo sapiens.
Assay [20] in a line: Luminescence-based dose response cell-based high throughput screening assay for cytotoxic compounds using the IEC-6 intestinal epithelial cell line. [Related pubchem assays: 1858 (Summary AID.), 1825 (Counterscreen.), 1907 (Confirmation screen.)]. It is filed as functional.
In assay [21] the target is T2, Type-1 angiotensin II receptor (Homo sapiens, UniProt P30556).
T2 sequence (P30556 whole entry): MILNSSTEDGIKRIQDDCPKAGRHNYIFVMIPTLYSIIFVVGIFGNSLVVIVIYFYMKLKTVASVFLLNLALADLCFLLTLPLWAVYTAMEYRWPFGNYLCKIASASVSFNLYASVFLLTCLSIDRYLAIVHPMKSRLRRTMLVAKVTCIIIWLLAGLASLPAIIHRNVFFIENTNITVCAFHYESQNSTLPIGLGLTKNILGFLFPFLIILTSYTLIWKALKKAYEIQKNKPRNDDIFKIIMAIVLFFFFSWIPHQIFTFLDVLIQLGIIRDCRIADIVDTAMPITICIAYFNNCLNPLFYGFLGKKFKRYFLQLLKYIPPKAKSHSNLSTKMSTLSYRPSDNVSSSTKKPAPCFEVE
In words: AT1 receptor antagonists, dose response, selectivity assay for APJ receptor antagonist project, cell-based, uHTS hits (AID 463214).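 Also: antagonist potency against angiotensin II stimulated AT1 response.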 It counts as functional.

The target of another assay is T3, Streptokinase A (Streptococcus pyogenes serotype M1, UniProt P10520).
T3 sequence (P10520 whole entry): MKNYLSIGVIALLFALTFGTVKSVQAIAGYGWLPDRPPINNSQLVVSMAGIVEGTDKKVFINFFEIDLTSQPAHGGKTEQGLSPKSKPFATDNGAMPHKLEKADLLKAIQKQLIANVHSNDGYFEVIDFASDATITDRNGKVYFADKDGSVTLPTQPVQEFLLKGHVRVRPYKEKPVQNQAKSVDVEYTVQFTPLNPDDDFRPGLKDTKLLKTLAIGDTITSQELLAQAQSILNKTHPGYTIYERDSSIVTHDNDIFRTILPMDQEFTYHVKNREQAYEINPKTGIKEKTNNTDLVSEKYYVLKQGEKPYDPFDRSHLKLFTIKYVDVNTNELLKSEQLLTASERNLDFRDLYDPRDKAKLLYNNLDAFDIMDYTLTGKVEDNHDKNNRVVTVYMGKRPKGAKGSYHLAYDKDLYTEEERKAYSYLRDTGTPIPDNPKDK
Description: S. pyogenes streptokinase expression inhibitors, potency, dose response, plasminogen activation absorbance, OD405 (AID 1914).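 Also: secreted streptokinase activity via plasminogen activation per viability signal from cell pellet.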 It is filed as functional, Streptococcus pyogenes M1 GAS.

In assay [22] the test system is BJ. Description: cytotoxicity toward Ras-transformed BJeLR fibroblasts, dose response, cell-based, alamar blue fluorescence, cherrypicked samples (AID 2631).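 Also: confirmatory dose-response assay in RAS-dependent BJ fibroblasts engineered with TERT, LT and ST, with cytotoxicity read by fluorescence.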 It counts as functional. The settings on record: Homo sapiens.
Assay [23] is described as follows: non-specific cell cytotoxicity, dose response, cytotoxicity control for PAX8 inhibitor project, plate reader, dry powder samples (AID 743021). It is filed as functional, cell-based.
The test system of the next assay is Jurkat. Description: SAR Analysis of small molecule inhibitors of both B-cell and T-cell specific antigen receptor-induced NF-kB activation in a Jurkat cell line using a luminescence assay. [Related pubchem assays (depositor defined):AID435003, AID435022, AID465, AID489029]. It counts as functional, cell-based. The settings on record: Homo sapiens.
The nature of assay [24]: cytotoxicity dependent on PAX8, dose response, cell-based, plate reader, dry powder (AID 743049). It counts as functional.
Assay [25] can be described thus: THP-1 cell cytotoxicity, cytotoxicity control, set 6 (AID 602433). It is filed as functional. As to conditions: Mycobacterium tuberculosis.
Assay [26] is described as follows: cytotoxicity toward NIH3T3 fibroblasts, dose response, counter-screen, cell-based, ATP luminescence, mouse fibroblasts (AID 2010).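 Also: cells exposed to compound for about 90 hours before reading.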 It counts as functional.
Assay [27] in a line: Luminescence Cell-Based Dose Response HTS to Identify Inhibitors of 5'UTR Stem-Loop Driven Prion Protein mRNA Translation in H4 Neuroglioblastoma Cells. [Related pubchem assays: 1827 (Project Summary), 1813 (Primary HTS)]. It is filed as functional.
The next assay has as its target DNA topoisomerase (Yersinia pestis, UniProt A0A2S9PM60). Description: Y. pestis Topo-I inhibitors, cleavage product readout, dose response, biochemical, cherry-pick (AID 588525).
A short description of assay [28]: inhibitors of intracellular T. cruzi replication, confirmation, NIH3T3 host cells, beta-gal luminescence (AID 2044).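 Also: intracellular parasites grown in NIH/3T3 mouse fibroblasts as host cells; luminescent beta-galactosidase reporter signal from transgenic T. cruzi replicating inside host cells; inhibitors lower the luminescence signal.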 It counts as functional, cell-based.
A short description of assay [29]: inhibitors of firefly luciferase expression or activity, dose response, H4 neuroglioma cells, luminescence (AID 1990). It is filed as functional, cell-based.
Assay [30] is described as follows: inhibitors of SNCA 5'UTR-driven reporter translation, confirmation, H4 neuroglioma cells, luminescence (AID 1988). It counts as functional, cell-based.

Activity calls are given as the source filed them. Where only a bound is given, the exact number is not on record here.

Paired box protein Pax-8, sequence (Q06710 whole entry): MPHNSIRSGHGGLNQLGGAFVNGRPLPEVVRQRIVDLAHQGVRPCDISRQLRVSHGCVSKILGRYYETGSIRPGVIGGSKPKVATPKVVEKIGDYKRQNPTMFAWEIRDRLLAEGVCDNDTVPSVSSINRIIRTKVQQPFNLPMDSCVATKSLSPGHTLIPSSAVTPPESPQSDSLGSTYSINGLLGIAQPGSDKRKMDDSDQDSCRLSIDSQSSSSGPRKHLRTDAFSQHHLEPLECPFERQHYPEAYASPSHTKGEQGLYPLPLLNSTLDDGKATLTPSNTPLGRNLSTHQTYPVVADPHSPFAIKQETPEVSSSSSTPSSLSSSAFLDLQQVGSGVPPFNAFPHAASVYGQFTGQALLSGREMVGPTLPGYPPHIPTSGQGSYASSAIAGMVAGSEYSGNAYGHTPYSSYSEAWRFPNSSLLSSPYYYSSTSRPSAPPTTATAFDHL
DNA topoisomerase, sequence (A0A2S9PM60 whole entry): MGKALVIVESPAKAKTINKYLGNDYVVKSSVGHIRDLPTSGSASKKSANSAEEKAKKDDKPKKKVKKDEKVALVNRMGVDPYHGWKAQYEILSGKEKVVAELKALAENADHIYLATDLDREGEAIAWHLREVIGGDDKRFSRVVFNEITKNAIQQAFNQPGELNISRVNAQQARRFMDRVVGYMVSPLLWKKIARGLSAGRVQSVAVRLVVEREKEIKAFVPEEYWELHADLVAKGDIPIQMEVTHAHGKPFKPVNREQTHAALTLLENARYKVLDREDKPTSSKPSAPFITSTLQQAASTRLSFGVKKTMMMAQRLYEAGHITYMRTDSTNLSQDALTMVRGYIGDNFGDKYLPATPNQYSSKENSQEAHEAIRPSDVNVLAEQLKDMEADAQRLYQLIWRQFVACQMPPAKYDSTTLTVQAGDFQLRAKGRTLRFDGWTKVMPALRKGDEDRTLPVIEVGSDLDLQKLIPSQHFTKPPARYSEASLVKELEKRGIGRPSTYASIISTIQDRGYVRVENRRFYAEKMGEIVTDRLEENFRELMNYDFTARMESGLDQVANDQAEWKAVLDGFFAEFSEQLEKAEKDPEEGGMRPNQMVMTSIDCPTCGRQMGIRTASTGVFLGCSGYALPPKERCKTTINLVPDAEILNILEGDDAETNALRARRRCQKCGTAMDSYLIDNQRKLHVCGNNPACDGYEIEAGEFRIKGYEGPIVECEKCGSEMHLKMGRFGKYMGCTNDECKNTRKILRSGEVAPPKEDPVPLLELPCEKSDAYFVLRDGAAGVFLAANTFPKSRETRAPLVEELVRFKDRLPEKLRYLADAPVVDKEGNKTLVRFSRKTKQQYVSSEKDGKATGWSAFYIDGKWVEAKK
CAAX prenyl protease 2 (Homo sapiens, UniProt Q9Y256), sequence (Q9Y256 whole entry): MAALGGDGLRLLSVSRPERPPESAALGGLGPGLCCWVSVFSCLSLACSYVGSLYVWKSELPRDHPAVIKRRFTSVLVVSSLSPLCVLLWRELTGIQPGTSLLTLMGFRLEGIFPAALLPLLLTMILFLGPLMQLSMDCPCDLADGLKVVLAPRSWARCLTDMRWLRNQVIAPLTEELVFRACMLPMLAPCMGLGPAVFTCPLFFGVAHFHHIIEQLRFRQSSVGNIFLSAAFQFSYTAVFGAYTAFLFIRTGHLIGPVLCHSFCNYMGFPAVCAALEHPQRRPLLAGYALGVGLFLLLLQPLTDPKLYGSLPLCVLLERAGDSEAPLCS

For the molecule `CC(C)c1c(C(=O)N/N=C/c2c[nH]c3ccccc23)nnn1-c1nonc1N`, the AC50 at CAAX prenyl protease 2 [1] was 3.14 µM (active); at CAAX prenyl protease 2 [2], 0.298 µM (active); at CAAX prenyl protease 2 [3] it was 29.3 µM (active).

Take `Cc1ccc2cccc(NS(=O)(=O)c3ccccc3)c2n1`: the AC50 in [4] is 17.3 µM (active); at Paired box protein Pax-8, 5.74 µM (active); in assay [6], 14 µM (active); in assay [7], 8.75 µM (active); in assay [8] it was 49.5 µM (active); in assay [9] it was 10.7 µM (active). For the same molecule, the AC50 in assay [11] is 21.1 µM (active); in assay [13], 5.65 µM (active); in [14] it was 20.5 µM (active); in assay [23] it was 44 µM (active); in assay [24] it was 15.6 µM (active). Also, the IC50 with HEK293 [5] is > 80 µM (inactive); in [16], > 80 µM (inactive); in the assay with HEK293 [19], > 79 µM (inactive); in assay [20], 0.589 µM (active); in assay [21], 2.35 µM (active); with Jurkat, 1.21 µM (active). The EC50 on Beta-galactosidase was > 40 µM (inactive); with BJ [10], > 150 µM (not active); in assay [12], 5.1 µM (active); in the assay on Streptococcus it was > 150 µM (not active); with BJ [15] it was 17.8 µM (active); with BJ [17], 37.9 µM (active). Further, the results for the EC50 (in assay [18]; on Streptokinase A; in the assay on BJ [22]) were 21.6 µM (active), > 150 µM (not active) and 5.74 µM (active), respectively.

In the case of `O=C(CSc1nc2ccccc2c(=O)[nH]1)NC1CCOCC1`, the CC50 in assay [25] was > 100 µM (inconclusive).

On to `O=C(CSc1nnc(COc2ccc(Cl)cc2)o1)N1c2ccccc2CCc2ccccc21`, for which the EC50 was < 6 µM (inconclusive) in [26]; 21.5 µM (active) in assay [27]; 0.625 µM (active) in assay [28]; 23.5 µM (active) in assay [29]; 15.2 µM (active) in [30]. The AC50 on DNA topoisomerase is 10.2 µM (active).

The record behind these values is ChEMBL document CHEMBL1201862, “PubChem BioAssay data set” (2004).
